Measured values reported in US20240327334A1, “Covalent Inhibitors As Antiviral Agents” (Enanta Pharmaceuticals, Inc., priority 2022, published 2024).

How the values were obtained:
SARS-CoV-2 replicon = experiment: microbe, parasite or virus in culture; format: cell-based; settings: Severe acute respiratory syndrome coronavirus 2, Huh-7
[1] = molecular target: SARS-CoV-2 Papain-like (PLpro) protease (Severe acute respiratory syndrome coronavirus 2, UniProt P0DTD1); experiment: SARS-CoV-2 Papain-like (PLpro) protease biochemical enzyme inhibition assay (ubiquitin-fluorophore substrate, Ub-R110); settings: Ub-R110 substrate; run in duplicate; read-out: PLpro IC50

Compound: C[C@@H](C#Cc1nccs1)NC(=O)C(=O)NCc1ccccc1C(=O)NC1(c2ccc3nn(C)cc3c2F)CC1 [Example 333]
- EC50 (SARS-CoV-2 replicon): < 1000 nM
- IC50 [1]: < 100 nM

Compound: C#CCNC(=O)C(=O)NCc1ccc(C#N)cc1C(=O)NC1(c2ccc(F)c3ccccc23)CC1 [Example 53]
- EC50 (SARS-CoV-2 replicon): < 1000 nM
- IC50 [1]: < 100 nM

Compound: C[C@@H](C#Cc1ncc(F)cn1)NC(=O)C(=O)NCc1ccccc1C(=O)NC1(c2cc(F)cc(-c3cnn(C4CC4)c3)c2)CC1 [Example 144]
- EC50 (SARS-CoV-2 replicon): < 1000 nM
- IC50 [1]: < 100 nM

Compound: CC(C)OC(=O)/C=C/CNC(=O)C(=O)NCc1ccccc1C(=O)NC1(c2cccc3ccccc23)CC1 [Example 538]
- EC50 (SARS-CoV-2 replicon): 1000 to 10000 nM
- IC50 [1]: 100 to 1000 nM

Compound: O=C(NCC#Cc1ncccc1C(F)(F)F)C(=O)NCc1ccccc1C(=O)NC1(c2ccc3ccccc3c2)CC1 [Example 191]
- EC50 (SARS-CoV-2 replicon): < 1000 nM
- IC50 [1]: < 100 nM

Compound: COc1cc(C2(NC(=O)c3ccccc3CNC(=O)C(=O)NC/C=C/c3ncccn3)CC2)cc2cn(C3CC3)nc12 [Example 577]
- EC50 (SARS-CoV-2 replicon): < 1000 nM
- IC50 [1]: < 100 nM

Compound: C#CCNC(=O)C(=O)NCc1ccccc1C(=O)NC1(c2cc(Cl)cc(-c3cc4ccccc4s3)c2)CC1 [Example 445]
- EC50 (SARS-CoV-2 replicon): 1000 to 10000 nM
- IC50 [1]: < 100 nM

Compound: O=C(/C=C/CNC(=O)C(=O)NCc1ccccc1C(=O)NC1(c2cccc3ccccc23)CC1)Nc1ccccc1 [Example 561]
- EC50 (SARS-CoV-2 replicon): 1000 to 10000 nM
- IC50 [1]: 100 to 1000 nM

Compound: N#Cc1cc(-c2cnn(C3CC3)c2)c(F)c(C2(NC(=O)c3ccccc3CNC(=O)C(=O)NCC#Cc3nccs3)CC2)c1 [Example 301]
- EC50 (SARS-CoV-2 replicon): < 1000 nM
- IC50 [1]: < 100 nM

Compound: COC(=O)/C=C/CNC(=O)C(=O)NCc1ccccc1C(=O)N[C@H](C)c1cc(-c2cnn(C(F)F)c2)cc(C(F)(F)F)c1 [Example 462]
- EC50 (SARS-CoV-2 replicon): < 1000 nM
- IC50 [1]: < 100 nM

Compound: N#CCNC(=O)C(=O)NCc1cnccc1C(=O)NC1(c2cccc3ccccc23)CC1 [Example 366]
- EC50 (SARS-CoV-2 replicon): 1000 to 10000 nM
- IC50 [1]: < 100 nM

Compound: C[C@@H](NC(=O)c1ccccc1CNC(=O)C(=O)NCC#Cc1nccs1)c1cc(F)cc(-c2cnn(C3CC3)c2)c1 [Example 491]
- EC50 (SARS-CoV-2 replicon): < 1000 nM
- IC50 [1]: < 100 nM

Compound: O=C(NCC#Cc1nccs1)C(=O)NCc1ccccc1C(=O)NC1(c2cc(F)cc(C(=O)N3CCOCC3)c2)CC1 [Example 138]
- EC50 (SARS-CoV-2 replicon): < 1000 nM
- IC50 [1]: < 100 nM

Compound: COC(=O)/C=C/CNC(=O)C(=O)NCc1cc(F)c(F)cc1C(=O)N[C@H](C)c1cccc2ccccc12 [Example 362]
- EC50 (SARS-CoV-2 replicon): < 1000 nM
- IC50 [1]: < 100 nM

Compound: COc1cccnc1C#C[C@H](C)NC(=O)C(=O)NCc1ccccc1C(=O)NC1(c2ccc3nn(C)cc3c2)CC1 [Example 273]
- EC50 (SARS-CoV-2 replicon): < 1000 nM
- IC50 [1]: < 100 nM

Compound: C[C@@H](NC(=O)c1ccccc1CNC(=O)C(=O)NCC#N)c1cc(-c2cnn(C3CC3)c2)cc(C(F)(F)F)c1 [Example 458]
- EC50 (SARS-CoV-2 replicon): < 1000 nM
- IC50 [1]: < 100 nM

Compound: NC(=O)C(=O)NCc1ccccc1C(=O)NC1(c2cc(-c3cnn(C4CC4)c3)cc3ccccc23)CC1 [Example 321]
- EC50 (SARS-CoV-2 replicon): 1000 to 10000 nM
- IC50 [1]: < 100 nM

Compound: C#CCNC(=O)C(=O)NCc1ccccc1C(=O)NC1(c2cc(Cl)cc(-c3cnco3)c2)CC1 [Example 450]
- EC50 (SARS-CoV-2 replicon): < 1000 nM
- IC50 [1]: < 100 nM

Compound: CNN(C)C(=O)/C=C/CNC(=O)C(=O)NCc1ccccc1C(=O)NC1(c2cccc3ccccc23)CC1 [Example 559]
- EC50 (SARS-CoV-2 replicon): 1000 to 10000 nM
- IC50 [1]: 100 to 1000 nM

Compound: COc1cc(C2(NC(=O)c3ccccc3CNC(=O)C(=O)NCC#Cc3ccc(C#N)cc3OC(F)(F)F)CC2)cc2cn(C3CC3)nc12 [Example 215]
- EC50 (SARS-CoV-2 replicon): < 1000 nM
- IC50 [1]: < 100 nM

Compound: CC[C@@H](C#Cc1ncc(F)cn1)NC(=O)C(=O)NCc1ccccc1C(=O)NC1(c2ccc3nn(C)cc3c2)CC1 [Example 213]
- EC50 (SARS-CoV-2 replicon): < 1000 nM
- IC50 [1]: < 100 nM

Compound: N#CCNC(=O)C(=O)NCc1ccccc1C(=O)NC1(c2ccc(F)c(-c3cccs3)c2)CC1 [Example 219]
- EC50 (SARS-CoV-2 replicon): 1000 to 10000 nM
- IC50 [1]: < 100 nM

Compound: C#CCNC(=O)C(=O)NCc1ccccc1C(=O)NC1(c2cccc3cc(F)ccc23)CC1 [Example 56]
- EC50 (SARS-CoV-2 replicon): < 1000 nM
- IC50 [1]: < 100 nM

Compound: N#CCNC(=O)C(=O)NCc1ccccc1C(=O)NC1(c2cc(-c3cnn(C4CC4)c3)cc(C(F)(F)F)c2)CC1 [Example 470]
- EC50 (SARS-CoV-2 replicon): 1000 to 10000 nM
- IC50 [1]: < 100 nM

Compound: C[C@H](NC(=O)c1ccccc1CNC(=O)C(=O)NCC#N)c1cc(C(F)(F)F)nc2ccccc12 [Example 327]
- EC50 (SARS-CoV-2 replicon): 1000 to 10000 nM
- IC50 [1]: < 100 nM

Compound: C[C@@H](NC(=O)c1c(F)cccc1CNC(=O)C(=O)NCC#N)c1cccc2ccccc12 [Example 29]
- EC50 (SARS-CoV-2 replicon): 1000 to 10000 nM
- IC50 [1]: < 100 nM

Compound: O=C(NC/C=C/C(=O)N1CC[C@@H](O)C1)C(=O)NCc1ccccc1C(=O)NC1(c2cccc3ccccc23)CC1 [Example 563]
- EC50 (SARS-CoV-2 replicon): > 10000 nM
- IC50 [1]: < 100 nM

Compound: O=C(NC/C=C/C(=O)N1CC[C@H](O)C1)C(=O)NCc1ccccc1C(=O)NC1(c2cccc3ccccc23)CC1 [Example 555]
- EC50 (SARS-CoV-2 replicon): 1000 to 10000 nM
- IC50 [1]: 100 to 1000 nM

Compound: O=C(NCC#Cc1nccs1)C(=O)NCc1ccccc1C(=O)NC1(c2ccc3ccccc3c2)CC1 [Example 167]
- EC50 (SARS-CoV-2 replicon): < 1000 nM
- IC50 [1]: < 100 nM

Compound: O=C(NCC#Cc1ccccn1)C(=O)NCc1ccccc1C(=O)NC1(c2ccc3ccccc3c2)CC1 [Example 174]
- EC50 (SARS-CoV-2 replicon): < 1000 nM
- IC50 [1]: < 100 nM

Compound: Cc1cccnc1C#CCNC(=O)C(=O)NCc1ccccc1C(=O)NC1(c2ccc3nn(C)cc3c2)CC1 [Example 271]
- EC50 (SARS-CoV-2 replicon): < 1000 nM
- IC50 [1]: < 100 nM

Compound: Cn1cc2cc(C3(NC(=O)c4ccccc4CNC(=O)C(=O)NCC#Cc4ncccc4OCC(F)F)CC3)ccc2n1 [Example 211]
- EC50 (SARS-CoV-2 replicon): < 1000 nM
- IC50 [1]: < 100 nM

Compound: O=C(NCC#Cc1nccs1)C(=O)NCc1ccccc1C(=O)NC1(c2ccnc3ccccc23)CC1 [Example 392]
- EC50 (SARS-CoV-2 replicon): 1000 to 10000 nM
- IC50 [1]: < 100 nM

Compound: C[C@@H](C#Cc1nccs1)NC(=O)C(=O)NCc1ccccc1C(=O)NC1(c2cc(F)cc(-c3cnn(C4COC4)c3)c2)CC1 [Example 254]
- EC50 (SARS-CoV-2 replicon): < 1000 nM
- IC50 [1]: < 100 nM

Compound: N#CCNC(=O)C(=O)NCc1ccccc1C(=O)NC1(c2cc(-c3cnn[nH]3)cc3ccccc23)CC1 [Example 425]
- EC50 (SARS-CoV-2 replicon): < 1000 nM
- IC50 [1]: < 100 nM

Compound: O=C(NC/C=C/c1ncccn1)C(=O)NCc1ccccc1C(=O)NC1(c2ccc3ccccc3c2)CC1 [Example 582]
- EC50 (SARS-CoV-2 replicon): < 1000 nM
- IC50 [1]: < 100 nM

Compound: C[C@@H](NC(=O)c1ccccc1CNC(=O)C(=O)NCC#N)c1cc(-c2ccco2)cc(C(F)(F)F)c1 [Example 467]
- EC50 (SARS-CoV-2 replicon): < 1000 nM
- IC50 [1]: < 100 nM

Compound: CN1CC(COc2ccc(CNC(=O)C(=O)NCC#N)c(C(=O)NC3(c4cccc5ccccc45)CC3)c2)C1 [Example 326]
- EC50 (SARS-CoV-2 replicon): 1000 to 10000 nM
- IC50 [1]: < 100 nM

Compound: Cn1cc2cc(C3(NC(=O)c4ccccc4CNC(=O)C(=O)NCC#Cc4ccc(C#N)cc4F)CC3)ccc2n1 [Example 103]
- EC50 (SARS-CoV-2 replicon): < 1000 nM
- IC50 [1]: < 100 nM

Compound: CN(C)CCn1cc(-c2cc(F)cc(C3(NC(=O)c4ccccc4CNC(=O)C(=O)NCC#Cc4ccccn4)CC3)c2)cn1 [Example 250]
- EC50 (SARS-CoV-2 replicon): < 1000 nM
- IC50 [1]: < 100 nM

Compound: Cc1cccnc1C#CCNC(=O)C(=O)NCc1ccccc1C(=O)NC1(c2cc(F)cc(-c3cn(C)nc3C)c2)CC1 [Example 260]
- EC50 (SARS-CoV-2 replicon): < 1000 nM
- IC50 [1]: < 100 nM

Compound: C#CCNC(=O)C(=O)NCc1ccccc1C(=O)NC1(c2cc(Cl)cc(-c3cn(C)nc3C)c2)CC1 [Example 485]
- EC50 (SARS-CoV-2 replicon): < 1000 nM
- IC50 [1]: < 100 nM

Compound: Cc1nn(C2CC2)c(C)c1-c1cc(Cl)cc(C2(NC(=O)c3ccccc3CNC(=O)C(=O)NCC#N)CC2)c1 [Example 130]
- EC50 (SARS-CoV-2 replicon): 1000 to 10000 nM
- IC50 [1]: < 100 nM

Compound: N#CCNC(=O)C(=O)NCc1ccccc1C(=O)NC1(c2cc(F)cc(-c3cccs3)c2)CC1 [Example 220]
- EC50 (SARS-CoV-2 replicon): 1000 to 10000 nM
- IC50 [1]: < 100 nM

Compound: N#CN1CCC(F)(C(=O)NCc2ccccc2C(=O)NC2(c3cc(Br)cc4ccccc34)CC2)C1 (stereo not shown) [Example 329]
- EC50 (SARS-CoV-2 replicon): < 1000 nM
- IC50 [1]: < 100 nM

Compound: N#CCNC(=O)C(=O)NCc1ccccc1C(=O)NC1(c2cccc3ccccc23)CC1 [Example 25]
- EC50 (SARS-CoV-2 replicon): < 1000 nM
- IC50 [1]: < 100 nM

Compound: O=C(NCC#Cc1ccccn1)C(=O)NCc1ccccc1C(=O)NC1(c2cc(F)cc(-c3cnn(C4CC4)c3)c2)CC1 [Example 252]
- EC50 (SARS-CoV-2 replicon): < 1000 nM
- IC50 [1]: < 100 nM

Compound: COc1cccnc1C#CCNC(=O)C(=O)NCc1ccccc1C(=O)NC1(c2ccc3nn(C)cc3c2)CC1 [Example 270]
- EC50 (SARS-CoV-2 replicon): < 1000 nM
- IC50 [1]: < 100 nM

Compound: CC(C)c1cccnc1C#CCNC(=O)C(=O)NCc1ccccc1C(=O)NC1(c2ccc3ccccc3c2)CC1 [Example 404]
- EC50 (SARS-CoV-2 replicon): < 1000 nM
- IC50 [1]: < 100 nM

Compound: N#CN1CC[C@H](C(=O)NCc2ccccc2C(=O)NC2(c3cc(Br)cc4ccccc34)CC2)C1 [Example 417]
- EC50 (SARS-CoV-2 replicon): < 1000 nM

Compound: COC(=O)/C=C/CNC(=O)C(=O)NCc1c(F)cc(F)cc1C(=O)N[C@H](C)c1cccc2ccccc12 [Example 360]
- EC50 (SARS-CoV-2 replicon): 1000 to 10000 nM
